Results from patent publication US20220411782A1, “PHAGE COMPOSITIONS COMPRISING CRISPR-CAS SYSTEMS AND METHODS OF USE THEREOF” (priority 2019, published 2022).
Structures can show the parent of a compound that is named as a salt.

System: E. coli strain LFP 527
Experiment: Mouse UTI model, pooled CFU results of Examples 7 and 8 (Example 9)
Assay type: in vivo, Escherichia coli in mice (Mus musculus)
Conditions: for # samples <LOD / Mean log CFU/g: ciprofloxacin IV 5 mg/kg; for Delta from LR: ciprofloxacin IV compared with intravenous LR
Description: The crPhage cocktail was a mixture of phages p0033L-10 (ATCC No. PTA-126316), p004k-5 (ATCC No. PTA-126319), and p0071-16 (ATCC No. PTA-126320) at concentrations of 2×10^11 plaque forming units (PFU)/mL/phage (“high”), 2×10^9 PFU/mL/phage (“medium”), or 2×10^7 PFU/mL/phage (“low”). A 50 μl dose thus provided 1×10^10 PFU/phage (“high”), 1×10^8 PFU/phage (“medium”), or 1×10^6 PFU/phage (“low”). Lactated Ringer's (LR) solution served as a negative control and ciprofloxacin (Cipro) served as a positive control.
Female C3H/HeN mice were infected with E. coli strain LFP 527 via intraurethral (IU) instillation. Beginning 48 hours after infection, a test article of phage cocktail containing p0033L-10, p004k-5, and p0071-16 was administered at time zero and every 12 hours for 48 hours (for a total of 5 doses). Phage cocktail with a range of phage concentrations (Table 16) or vehicle was delivered either intravenously (IV) or by IU instillation into the bladder. The phage cocktails were prepared using LR.

## O=C(O)c1cn(C2CC2)c2cc(N3CCNCC3)c(F)cc2c1=O [ciprofloxacin, Ciprofloxacin hydrochloride]
Bladder, 54 hours
  # samples <LOD: 0
  Mean log CFU/g: 4.96 log CFU/g
  Delta from LR: −1.55 (n.s.) log CFU/g
Bladder, 102 hours
  # samples <LOD: 1
  Mean log CFU/g: 3.16 log CFU/g
  Delta from LR: −2.23 (p = 0.0033) log CFU/g
Kidney, 54 hours
  # samples <LOD: 0
  Mean log CFU/g: 3.47 log CFU/g
  Delta from LR: −1.66 (n.s.) log CFU/g
Kidney, 102 hours
  # samples <LOD: 3
  Mean log CFU/g: 2.03 log CFU/g
  Delta from LR: −3.11 (p <0.0001) log CFU/g
